Experimental data published in ChEMBL document CHEMBL1136488, “Antibacterial and antiproliferative activity of cationic fullerene derivatives” (2003).
≈ marks a conversion by molar mass, not a printed value.

What was measured:
Enterococcus hirae = experiment: Antibacterial activity against Enterococcus hirae ATCC 8043; assay type: functional
[1] = test system: Staphylococcus epidermidis; experiment: Antibacterial activity against Staphylococcus epidermidis ATCC 14990; assay type: functional
Staphylococcus aureus [2] = experiment: Antibacterial activity against Staphylococcus aureus 209P JC-1; assay type: functional
Enterococcus faecalis [3] = experiment: Antibacterial activity against Enterococcus faecalis W-73; assay type: functional
Staphylococcus aureus [4] = experiment: Antibacterial activity against […] resistant Staphylococcus aureus M126 (MRSA); assay type: functional
Enterococcus faecalis [5] = experiment: Antibacterial activity against vancomycin resistant Enterococcus faecalis NCTC 12201 (VRE); assay type: functional
Enterococcus faecium = experiment: Antibacterial activity against vancomycin resistant Enterococcus faecium vanA (VRE); assay type: functional
Staphylococcus aureus [6] = experiment: Antibacterial activity against […] resistant Staphylococcus aureus M133 (MRSA); assay type: functional
Enterococcus faecalis [7] = experiment: Antibacterial activity against Enterococcus faecalis W-73

C[N+]1(C)CC23C4=C5C6=C7C8C9=c%10c%11c%12c%13c%14c%15c%16c%17c%18c%19c%20c%21c%22c%23c(c4c4c2c2c%24c%25c(c%10c(c%11%15)c%10c%16c%19c(c%25%10)c%10c%20c%23c4c%24%10)C2C9C73C1)C1C%22=C2c3c(c6c(c-%13c3C(C%14%17)C23C[N+](C)(C)CC%21%183)C%128)C51.[I-].[I-] (centres undefined)
MIC (Enterococcus hirae): 12.5 µg/mL | MIC [1]: 6.25 µg/mL | MIC (Staphylococcus aureus [2]): 1.56 µg/mL | MIC (Enterococcus faecalis [3]): 12.5 µg/mL | MIC (Staphylococcus aureus [4]): 3.12 µg/mL | MIC (Enterococcus faecalis [5]): 12.5 µg/mL | MIC (Enterococcus faecium): 12.5 µg/mL | MIC (Staphylococcus aureus [6]): 0.78 µg/mL

CCCCCCCCCC1C23C4=C5c6c7c8c9c(c%10c%11c%12c%13c%14c%15c%16c%17c%18c%19c%20c%21c%22c%23c%24c(c6c6c8c8c%25c9c%11c%14c%25c9c%15c%18c%11c(c%23%19)c%24c6c8c%119)C5C%22c5c4c4c6c(c5-%21)C(C%20%17)C5(C6=C%12C%10C42)C(CCCCCCCCC)[N+](C)(C)CC%13%165)C73C[N+]1(C)C.[I-].[I-] (centres undefined)
MIC (Enterococcus hirae): > 100 µg/mL | MIC [1]: > 100 µg/mL | MIC (Staphylococcus aureus [2]): > 100 µg/mL | MIC (Enterococcus faecalis [3]): > 100 µg/mL | MIC (Enterococcus faecalis [5]): > 100 µg/mL | MIC (Enterococcus faecium): > 100 µg/mL

CCCCC1C23C4=c5c6c7c8c9c%10c%11c%12c%13c%14c%15c%16c%17c%18c%19c%20c%21c%22c%23c(c5c5c6c6c8c%11c8c%11c%12c%15c%12c(c%20%16)c%21c%15c%23c5c(c68)c%15c%12%11)C2(C[N+]1(C)C)C%22C%19c1c-%18c2c5c(c13)C4C7C9=C5C1(C2C%17%14)C(CCCC)[N+](C)(C)CC%10%131.[I-].[I-] (centres undefined)
MIC (Enterococcus hirae): 6.25 µg/mL | MIC [1]: 6.25 µg/mL | MIC (Staphylococcus aureus [2]): 6.25 µg/mL | MIC (Enterococcus faecalis [3]): 6.25 µg/mL | MIC (Staphylococcus aureus [4]): 6.25 µg/mL | MIC (Enterococcus faecalis [5]): 6.25 µg/mL | MIC (Enterococcus faecium): 12.5 µg/mL | MIC (Staphylococcus aureus [6]): 6.25 µg/mL

C[N+]1(C)CC23c4c5c6c7c8c9c%10c%11c%12c%13c%14c%15c%16c%17c%18c%19c%20c(c2c2c4c4c6c6c8c%10c8c%12c%10c%14c(c%15%19)c%12c%20c2c2c4c6c8c%10c%122)C%18C2c4c6c8c%10c(c4-%17)C%16C%13C%114C[N+](C)(C)CC%104C=9C8C7C5=C6C23C1.[I-].[I-] (centres undefined)
MIC (Enterococcus hirae): 6.25 µg/mL | MIC [1]: 3.12 µg/mL | MIC (Staphylococcus aureus [2]): 0.78 µg/mL | MIC (Enterococcus faecalis [3]): 6.25 µg/mL | MIC (Staphylococcus aureus [4]): 1.56 µg/mL | MIC (Enterococcus faecalis [5]): 3.12 µg/mL | MIC (Enterococcus faecium): 6.25 µg/mL | MIC (Staphylococcus aureus [6]): 1.56 µg/mL

CCCCCCC1C23C4=c5c6c7c8c9c%10c%11c%12c%13c%14c%15c%16c%17c%18c%19c%20c%21c%22c%23c(c5c5c6c6c8c%11c8c%11c%12c%15c%12c(c%20%16)c%21c%15c%23c5c(c68)c%15c%12%11)C2(C[N+]1(C)C)C%22C%19c1c-%18c2c5c(c13)C4C7C9=C5C1(C2C%17%14)C(CCCCCC)[N+](C)(C)CC%10%131.[I-].[I-] (centres undefined)
MIC (Enterococcus hirae): 25 µg/mL | MIC [1]: 12.5 µg/mL | MIC (Staphylococcus aureus [2]): 6.25 µg/mL | MIC (Staphylococcus aureus [4]): 12.5 µg/mL | MIC (Enterococcus faecalis [7]): 50 µg/mL | MIC (Enterococcus faecalis [5]): 25 µg/mL | MIC (Enterococcus faecium): 12.5 µg/mL | MIC (Staphylococcus aureus [6]): 12.5 µg/mL

CN[C@H](CC(C)C)C(=O)N[C@H]1C(=O)N[C@@H](CC(N)=O)C(=O)N[C@H]2C(=O)N[C@H]3C(=O)N[C@H](C(=O)N[C@H](C(=O)O)c4cc(O)cc(O)c4-c4cc3ccc4O)[C@H](O)c3ccc(c(Cl)c3)Oc3cc2cc(c3O[C@@H]2O[C@H](CO)[C@@H](O)[C@H](O)[C@H]2O[C@H]2C[C@](C)(N)[C@H](O)[C@H](C)O2)Oc2ccc(cc2Cl)[C@H]1O [VANCOMYCIN]
MIC (Enterococcus hirae): 3.12 µg/mL (≈ 2.15 µM) | MIC [1]: 3.12 µg/mL (≈ 2.15 µM) | MIC (Staphylococcus aureus [2]): 1.56 µg/mL (≈ 1.08 µM) | MIC (Enterococcus faecalis [3]): 3.12 µg/mL (≈ 2.15 µM) | MIC (Staphylococcus aureus [4]): 1.56 µg/mL (≈ 1.08 µM) | MIC (Enterococcus faecalis [5]): > 100 µg/mL | MIC (Enterococcus faecium): > 100 µg/mL | MIC (Staphylococcus aureus [6]): 1.56 µg/mL (≈ 1.08 µM)

C[N+]1(C)CC23c4c5c6c7c8c9c%10c%11c%12c%13c%14c%15c%16c%17c%18c%19c%20c%21c(c2c2c4c4c6c9c6c4c4c2c%21c2c%19c(c%18%14)c9c%13c%10c6c9c24)C2=C4c6c(c-%16c9c%10c6C(C5C7=C%10C5(C[N+](C)(C)CC8%115)C9C%15%12)C43C1)C%17C2%20.[I-].[I-] (centres undefined)
MIC (Enterococcus hirae): 6.25 µg/mL | MIC [1]: 3.12 µg/mL | MIC (Staphylococcus aureus [2]): 3.12 µg/mL | MIC (Enterococcus faecalis [3]): 6.25 µg/mL | MIC (Staphylococcus aureus [4]): 3.12 µg/mL | MIC (Enterococcus faecalis [5]): 6.25 µg/mL | MIC (Enterococcus faecium): 6.25 µg/mL | MIC (Staphylococcus aureus [6]): 3.12 µg/mL
